No end group written: not given here.
Experiments:
WDR5 [1] = conditions: cited from earlier work
Text: (§1) WDR5, a well-established core scaffolding protein found in histone methyltransferase complexes MLL1-4 and SET1A/B ([1], [2]), was initially characterized as an epigenetic histone “writer” to recognize histone H3 lysine 4 (H3K4) and is essential for H3K4 di- and tri-methylation (H3K4me2 and H3K4me3) to activate gene transcription ([1], [3], [4], [5], [6]). Moreover, the interaction between WDR5 and the H3 tail could be regulated by the methylation of H3 arginine 2 (H3R2) ([7], [8]). It is also present in the nonspecific lethal (NSL) complex of histone acetyltransferase, where it is responsible ...

[2] = tested on: patient-derived mouse models; conditions: cited from earlier work
Text: as §1

WDR5 [3] = biological target: T1, WDR5 (Mus musculus, UniProt P61965); test: ITC of MBD3C peptides titrated into wild-type WDR5 (residues 24–334); conditions: MicroCal PEAQ-ITC, 20 °C, 20 mM Tris-HCl, 200 mM NaCl, pH 7.5, WDR5 WT 44.5 μM, peptide 0.5–1.0 mM, single binding site model, triplicate, N.D. = not detectable binding
T1 construct: to titrate the truncated WDR5 construct (residues 24–334); GST (N, cleaved yes); made in house; host or cells: Escherichia coli BL21 (DE3)
Text: To validate their findings and determine the dissociation constant (Kd) between WDR5 and MBD3C40-51 more accurately, we performed ITC experiments using a synthetic MBD3C peptide spanning 40 to 51 to titrate the truncated WDR5 construct (residues 24–334).
The DNA fragment encoding the mouse WDR5 seven tandem WD-40 repeats (residues 24–334) was amplified via PCR from the human brain and bone marrow cDNA library and cloned into the pGEX-4T1 vector modified with an N-terminal GST tag and a TEV cleavage site (ENLYFQ/GSHM) (where ‘/’ indicates the cleavage site). All WDR5 mutants were generated using a MutanBEST kit and subsequently confirmed through DNA sequencing. The proteins were expressed in Escherichia coli BL21 (DE3) cells (Novagen) that were cultured in Luria–Bertani medium at 37 °C. The recombinant proteins were induced by 0.2 mM isopropyl β-D-1-thiogalactopyranoside (IPTG) upon reaching an optical density at 600 nm (OD600 nm) 0.8, then transferred to 16 °C and incubated for 18 h. Cells were harvested by centrifugation and resuspended in Buffer A (20 mM Tris-HCl, 500 mM NaCl, pH 8.0), supplemented with DNAaseI (10U) and protein protease inhibitor (Roche, 1 tablet dissolved in 1 ml sterile water), and then lysed by a high-pressure cell homogenizer. The cell debris was removed by centrifugation, and the supernatant was subjected to a 6-h incubation at 4 °C with glutathione Sepharose resins (GE Healthcare) The resins bound by GST-tagged proteins were resuspended in 20 ml Buffer A. Then, the GST tag was removed through digestion with ∼1 mg TEV protease (purified in-house) at 4 °C overnight. […]
(§2) ITC assays were performed on a Microcal PEAQ-ITC instrument (Malvern Panalytical) at 20 °C. Proteins were quantified by absorbance at 280 nm and diluted to 44.5 μM with Buffer D. The peptides were adjusted to 0.5 to 1.0 mM with the same buffer. […]

WDR5^D107R = biological target: T2, WDR5^D107R (Mus musculus, UniProt P61965, D107R); test: ITC of MBD3C peptide titrated into WDR5 D107R mutant; conditions: 20 °C, 200 mM NaCl, pH 7.5, WDR5 D107R, N.D. = not detectable binding
T2 construct: the mouse WDR5 seven tandem WD-40 repeats (residues 24–334); GST (N, cleaved yes); made in house; host or cells: Escherichia coli BL21 (DE3)
Text: To validate the importance of the aforementioned residues in the interactions between MBD3C and WDR5, we conducted mutations on Arg43, Arg45, and Phe47 residues within MBD3C and the corresponding residues within WDR5. […] In addition, MBD3C carrying R43K mutation weakens the interaction with WDR5 by ∼9.1-fold (Figs. 2D, S2, and Table 2). […] The Arg-Asp specific interaction was also observed in a previously determined WDR5-KANSL1 complex, thereby contributing to the high binding affinity of KANSL1 for WDR5 ([9]). […] In comparison to the wild-type MBD3C, the dissociation constants were approximately 4-fold and 6.8-fold higher when Phe47 was mutated to alanine and histidine (Figs. 2D, S2, and Table 2), respectively.
The DNA fragment encoding the mouse WDR5 seven tandem WD-40 repeats (residues 24–334) was amplified via PCR from the human brain and bone marrow cDNA library and cloned into the pGEX-4T1 vector modified with an N-terminal GST tag and a TEV cleavage site (ENLYFQ/GSHM) (where ‘/’ indicates the cleavage site). All WDR5 mutants were generated using a MutanBEST kit and subsequently confirmed through DNA sequencing. […]
as §2

Row | Molecule | Kd (WDR5 [3]) | further results
1 | Cc1ncsc1-c1ccc([C@H](C)NC(=O)[C@@H]2C[C@@H](O)CN2C(=O)[C@@H](NC(=O)CNC(=O)c2ccc(F)c(-c3ccc(N4C[C@@H](C)N(C)[C@@H](C)C4)c(NC(=O)c4c[nH]c(=O)cc4C(F)(F)F)c3)c2)C(C)(C)C)cc1 [MS67] | – | reduction of WDR5 levels in cells (WDR5 [1]): effectively reduced WDR5 levels; tumor growth [2]: suppressed tumor growth
2 | GAAACRVFSPQG [MBD3C^R43A, MBD3C 40–51 peptide with R43A mutation] | no binding was observed | –
3 | GAADCRVFSPQG [MBD3C^R43D, MBD3C 40–51 peptide with R43D mutation] | no binding was observed | –
4 | GAAECRVFSPQG [MBD3C^R43E, MBD3C 40–51 peptide with R43E mutation] | no binding was observed | –
5 | GAARCRVFSPQG [MBD3C] | – | Kd (WDR5^D107R): No interaction was observed
